Values of other authors as cited in US20110059171A1 (LABORATORIOS SENOSIAIN S.A. DE C.V., priority 2008, published 2011).

Key:
[1] = in vivo

| water solubility | bound to proteins (proteins) | excreted without any change in urine [1] | SMILES |
| --- | --- | --- | --- |
| highly water-soluble |  |  | O=C(c1ccccc1)c1ccc2n1CCC2C(=O)O (racemic) [Ketorolac tromethamine, (+−)-5(benzoyl)-2,3-dihydro-1H-pyrrolizine-1-carboxylic acid tris (hydroxymethyl)methylamine] |
|  | More than 99% | about 90% | O=C(c1ccccc1)c1ccc2n1CCC2C(=O)O (stereo not drawn) [Ketorolac] |
